Test [1] deals with HT-29. In words: Photodynamic cytotoxicity against human HT-29 cells assessed as reduction in cell viability incubated for 3 hrs followed by fresh medium replacement and subsequent white LED irradiation measured after 24 hrs by MTT assay relative to control. It is filed as functional. (In general: Tetrazolium assays rely on reduction of a dye to a coloured formazan, in cell work by metabolically active cells.)

In test [2] the test system is HT-29. In words: Photodynamic cytotoxicity against human HT-29 cells assessed as reduction in cell viability incubated for 3 hrs followed by fresh medium replacement and subsequent blue LED irradiation measured after 24 hrs by MTT assay relative to control. Type of test: functional.
Test [3] deals with HT-29. Nature of the test: Photodynamic cytotoxicity against human HT-29 cells assessed as reduction in cell viability incubated for 3 hrs followed by fresh medium replacement and subsequent red LED irradiation measured after 24 hrs by MTT assay relative to control. Type of test: functional.
For test [4], the system named is HT-29. Nature of the test: Antitumor activity against human HT-29 cells xenografted in BALB/c mouse assessed as tumor growth inhibition at 250 mg/kg, ip followed by LED irradiation with repeated compound irradiation for thrice upto 3 weeks relative to control. Type of test: functional. The following applies: HT-29, light or radiation study, 504 h, read-out: TGI.

Test [5] relates to WiDr. In words: Photocytotoxicity against human WiDr cells assessed as lethal dose incubated for 18 hrs followed by replacement of medium containing compound with 48 hrs incubation and subsequent light irradiation of 13.5 mW/cm2 at 435 nm measured after 48 hrs by MTT assay. It is filed as functional. The following applies: light or radiation study, read-out: LD50 (the source's name).

The test system of test [6] is WiDr. In words: Photodynamic cytotoxicity against human WiDr cells assessed as reduction in cell viability at 50 nM incubated for 24 hrs followed by compound washout and 7.5 mW/cm2 light irradiation measured after 24 hrs by MTT assay relative to control. Type of test: functional.
Test [7] deals with WiDr. Nature of the test: Photodynamic cytotoxicity against human WiDr cells assessed as cell growth inhibition measured after 24 hrs of 10J light irradiation by flow cytometry. Type of test: functional, cell-based. The note with it: light or radiation study.
The test system of test [8] is WiDr. Nature of the test: Photodynamic cytotoxicity against human WiDr cells assessed as cell growth inhibition measured after 72 hrs of 10J light irradiation by flow cytometry. Type of test: functional, cell-based. The following applies: light or radiation study. Background: Flow cytometry measures light scatter and fluorescence of single cells or particles in a stream.

For test [9], the system named is HT-29. Nature of the test: Photodynamic cytotoxicity against human HT-29 cells assessed as reduction in cell viability at 19.4 J/cm2 light irradiation followed by immediate fresh medium replacement measured after 24 hrs by MTT assay relative to control. Type of test: functional.
For test [10], the system named is HT-29. In words: Photodynamic cytotoxicity against human HT-29 cells assessed as reduction in cell viability at 19.4 J/cm2 light irradiation >570 nm followed by immediate fresh medium replacement measured after 24 hrs by MTT assay relative to control. It is filed as functional.
The subject of test [11] is HT-29. In words: Photocytotoxicity against human HT-29 cells assessed as lethal dose incubated for 4 hrs followed by 3 J/cm2 LED irradiation and subsequent compound replenishment measured after 20 hrs by MTT assay. Type of test: functional.

Each structure is given as a SMILES string. ≈ marks a conversion by molar mass, not a printed value. Some results are limits rather than exact numbers.

As for `C=CC1=C(C)c2cc3[nH]c(cc4nc(cc5[nH]c(cc1n2)c(C)c5C=C)C(C)=C4CCC(=O)O)c(CCC(=O)O)c3C`, the Activity with HT-29 [1] is reported as 40%; in the test on HT-29 [2], 40%; with HT-29 [3], 20%. In the test on HT-29 [4], the inhibition in vivo at 250 mg/kg came to 88%.

Consider `C[N+](C)(C)c1ccc(-c2c3nc(c(-c4ccc([N+](C)(C)C)cc4)c4ccc([nH]4)c(-c4ccc([N+](C)(C)C)cc4)c4nc(c(-c5ccc([N+](C)(C)C)cc5)c5ccc2[nH]5)C=C4)C=C3)cc1`, for which, in the test with WiDr [5], the CC50 stood at 2000 nM.

Take `O=S(=O)(O)c1ccc(-c2c3nc(c(-c4ccc(S(=O)(=O)O)cc4)c4ccc([nH]4)c(-c4ccc(S(=O)(=O)O)cc4)c4nc(c(-c5ccc(S(=O)(=O)O)cc5)c5ccc2[nH]5)C=C4)C=C3)cc1`: the CC50 in the test on WiDr [5] was determined as 100000 nM. Same read-out and setting: under `O=C(O)c1ccc(-c2c3nc(c(-c4ccc(C(=O)O)cc4)c4ccc([nH]4)c(-c4ccc(C(=O)O)cc4)c4nc(c(-c5ccc(C(=O)O)cc5)c5ccc2[nH]5)C=C4)C=C3)cc1` stands 15000 nM; under `Oc1ccc(-c2c3nc(c(-c4ccc(O)cc4)c4ccc([nH]4)c(-c4ccc(O)cc4)c4nc(c(-c5ccc(O)cc5)c5ccc2[nH]5)C=C4)C=C3)cc1`, 200 nM.

Regarding `Oc1ccc(Br)c(-c2c3nc(cc4ccc([nH]4)c(-c4cc(O)ccc4Br)c4nc(cc5ccc2[nH]5)C=C4)C=C3)c1`, the Activity with WiDr [6] is recorded as greater than 50%. The IC50 – broadly, the concentration that inhibits the measured activity by half – worked out at 180 nM in the test with WiDr [7] and 140 nM in the test with WiDr [8]. With `Oc1ccc(Cl)c(-c2c3nc(cc4ccc([nH]4)c(-c4cc(O)ccc4Cl)c4nc(cc5ccc2[nH]5)C=C4)C=C3)c1`, the Activity in the test with WiDr [6] is greater than 50%.

On to `Oc1ccc(Br)c(-c2c3nc(c(-c4cc(O)ccc4Br)c4ccc([nH]4)c(-c4cc(O)ccc4Br)c4nc(c(-c5cc(O)ccc5Br)c5ccc2[nH]5)C=C4)C=C3)c1`, for which the half-inhibitory concentration (IC50) was 464 nM in the test on WiDr [7] and 620 nM in the test with WiDr [8].

Consider `C1=Cc2nc1c(-c1ccc3ccccc3n1)c1ccc([nH]1)c(-c1ccc3ccccc3n1)c1nc(c(-c3ccc4ccccc4n3)c3ccc([nH]3)c2-c2ccc3ccccc3n2)C=C1`, for which the results for the Activity with HT-29 [9] and in the test with HT-29 [10] were 80% and 10%, respectively. Consider `Oc1cccc(-c2c3nc(cc4ccc([nH]4)c(-c4cccc(O)c4)c4nc(cc5ccc2[nH]5)C=C4)C=C3)c1`, for which the Activity in the test on WiDr [6] is reported as greater than 50%. For `Oc1cccc(-c2c3nc(cc4ccc([nH]4)c(-c4cccc(O)c4I)c4nc(cc5ccc2[nH]5)C=C4)C=C3)c1I`, the Activity in the test with WiDr [6] is given as greater than 50%. On the same count and under the same terms, under `Oc1cc(-c2c3nc(cc4ccc([nH]4)c(-c4ccc(I)c(O)c4)c4nc(cc5ccc2[nH]5)C=C4)C=C3)ccc1I` stands greater than 50%. For `Oc1cccc(-c2c3nc(c(-c4cccc(O)c4)c4ccc([nH]4)c(-c4cccc(O)c4)c4nc(c(-c5cccc(O)c5)c5ccc2[nH]5)CC4)C=C3)c1` [TEMOPORFIN], the LD70 in the test with HT-29 [11] was 0.6 µg/mL. Besides, the CC50 in the test with HT-29 [11] (Homo sapiens, HT-29, light or radiation study, read-out: LD50 (the source's name)) was 0.3 µg/mL (≈ 0.441 µM).
